Type in all cases: in vivo
Series [1] concerns Bean. Nature of the series: Phytotoxicity Test, bean. Further details: key: 1: no perceptible injury; 2: intermediate degrees of injury based upon the number and extent to which leaves were injured; 3: intermediate degrees of injury based upon the number and extent to which leaves were injured; 4: intermediate degrees of injury based upon the number and extent to which leaves were injured; 5: the plant was dead. The conditions noted are these: 2500 ppm spray, rated after ten days. As to the method:
(§1) Experiments were also conducted to determine the phytoxicity of representative compounds with respect to healthy fresh plants. Solutions of the compounds were prepared as described above to provide a concentration of 2500 parts per million of the test compound. The test plants were sprayed in accordance with the procedure described above for the Mite Foliage Spray Test so as to deliver approximately 100 milliliters of test solution to the leaves of each plant tested. The sprayed plants and controls were set aside for approximately one hour to allow the foliage to dry and were then placed in the greenhouse. After ten days the plants were visually inspected to determine the extent of foliage injury. A rating of 1 indicates no perceptible injury; 5 indicates the plant was dead and ratings of 2, 3 and 4 indicate intermediate degrees of injury based upon the number and extent to which leaves were injured.

For series [2], the system named is Corn. Nature of the series: Phytotoxicity Test, corn. Also noted: key: 1: no perceptible injury; 2: intermediate degrees of injury based upon the number and extent to which leaves were injured; 3: intermediate degrees of injury based upon the number and extent to which leaves were injured; 4: intermediate degrees of injury based upon the number and extent to which leaves were injured; 5: the plant was dead. Particulars: 2500 ppm spray, rated after ten days. On the procedure: as §1

Series [3] deals with Cotton. The experiment in a line: Phytotoxicity Test, cotton. Further details: key: 1: no perceptible injury; 2: intermediate degrees of injury based upon the number and extent to which leaves were injured; 3: intermediate degrees of injury based upon the number and extent to which leaves were injured; 4: intermediate degrees of injury based upon the number and extent to which leaves were injured; 5: the plant was dead. The conditions noted are these: 2500 ppm spray, rated after ten days. On the procedure: as §1

Series [4] has as its system Tomato. The experiment in a line: Phytotoxicity Test, tomato. Also noted: key: 1: no perceptible injury; 2: intermediate degrees of injury based upon the number and extent to which leaves were injured; 3: intermediate degrees of injury based upon the number and extent to which leaves were injured; 4: intermediate degrees of injury based upon the number and extent to which leaves were injured; 5: the plant was dead. The conditions noted are these: 2500 ppm spray, rated after ten days. On the procedure:
as §1

The subject of series [5] is two-spotted mite (Tetranychus urticae Koch). Nature of the series: Mite Foliage Spray Test. Further details: key: A: excellent control; B: partial control; C: no control. The conditions noted are these: 500 ppm foliage spray, six days. As to the method: Suspensions of the test compounds were prepared by dissolving one gram of compound in 50 milliliters of acetone in which had been dissolved 0.1 gram (10 percent of the weight of compound) of an alkylphenoxy polyethoxyethanol surfactant, as an emulsifying or dispersing agent. The resulting solution was mixed into 150 milliliters of water to give roughly 200 milliliters of a suspension containing the compound in finely divided form. The thus-prepared stock suspension contained 0.5 percent by weight of compound. The test concentrations in parts per million by weight employed in the tests described hereinbelow were obtained by appropriate dilutions of the stock suspension with water. The test procedures were as follows:
Adults and nymphal stages of the two-spotted mite (Tetranychus urticae Koch), reared on Tendergreen bean plants at 80±5 percent relative humidity, were the test organisms. Infested leaves from a stock culture were placed on the primary leaves of two bean plants six to eight inches in height, growing in a two-and-a-half inch clay pot. 150-200 Mites, a sufficient number for testing, transferred from the excised leaves to the fresh plants in a period of twenty four hours. Following the twenty four hour transfer period, the excised leaves were removed from the infested plants. The test compounds were formulated by diluting the stock suspension with water to give a suspension containing 500 parts of test compound per million parts of final formulation. The potted plants (one pot per compound) were placed on a revolving turntable and sprayed with 100-110 milliliters of test compound formulation by use of a DeVilbiss spray gun set at 40 psig. air pressure. This application, which lasted 25 seconds, was sufficient to wet the plants to run-off. As a control, 100=110 milliliters of a water solution containing acetone and emulsifier in the same concentrations as the test compound formulation, but containing no test compound, were also sprayed on infested plants. The sprayed plants were held at 80±5 percent relative humidity for six days, after which a mortality count of motile forms was made. Microscopic examination for motile forms was made on the leaves of the test plants. Any individual which was capable of locomotion upon prodding was considered living. […]
In these tests the pesticidal activity of the compounds against aphid, mite, Southerm Armyworm, Bean Beetle and house fly was rated as follows: […]

Take `C#CCOc1ccccc1OC(=O)N(C)SSN(C)C(=O)Oc1cccc2c1OC(C)(C)C2`: the “Phytotoxicity, Bean” value in series [1] came out at 1. Moreover, the “Phytotoxicity, Corn” value in series [2] is on record as 1. Moreover, the “Phytotoxicity, Cotton” value in series [3] came out at 1. Further, in series [4], the “Phytotoxicity, Tomato” value came out at 1. Also, the “Miticidal activity rating, Mite” value in series [5] was “C”.
`CN(SSN(C)C(=O)Oc1cccc2ccccc12)C(=O)Oc1cccc2c1OC(C)(C)C2`: in series [1], the “Phytotoxicity, Bean” value was 1. In addition, the “Phytotoxicity, Corn” value in series [2] came to 1. For the same compound, in series [3], the “Phytotoxicity, Cotton” value was determined as 1. Also, in series [4], the “Phytotoxicity, Tomato” value is 1. Moreover, in series [5], the “Miticidal activity rating, Mite” value was “C”.
For the compound `CSc1ccc(OC(=O)N(C)SSN(C)C(=O)Oc2cccc3c2OC(C)(C)C3)cc1C`, the “Phytotoxicity, Bean” value in series [1] amounted to 1. In addition, the “Phytotoxicity, Corn” value in series [2] was found to be 1. For the same compound, the “Phytotoxicity, Cotton” value in series [3] is recorded as 1. In addition, the “Phytotoxicity, Tomato” value in series [4] is 1. Moreover, the “Miticidal activity rating, Mite” value in series [5] was “C”.
Take `Cc1cc(C)cc(OC(=O)N(C)SSN(C)C(=O)Oc2cccc3c2OC(C)(C)C3)c1`: the “Phytotoxicity, Bean” value in series [1] came to 1. For the same compound, in series [2], the “Phytotoxicity, Corn” value is on record as 1. For the same compound, the “Phytotoxicity, Cotton” value in series [3] is 1. Besides, the “Phytotoxicity, Tomato” value in series [4] worked out at 1. Further, in series [5], the “Miticidal activity rating, Mite” value is listed as “C”.
Turning to `CN(SSN(C)C(=O)Oc1cccc2c1OC(C)(C)C2)C(=O)Oc1cccc(N(C)C)c1`, in series [1], the “Phytotoxicity, Bean” value was 1. Moreover, in series [2], the “Phytotoxicity, Corn” value was determined as 1. Also, the “Phytotoxicity, Cotton” value in series [3] is listed as 1. The “Phytotoxicity, Tomato” value in series [4] amounted to 1. Further, the “Miticidal activity rating, Mite” value in series [5] is “C”.
Take `CN(SSN(C)C(=O)Oc1cccc2c1OC(C)(C)C2)C(=O)Oc1ccc2c(c1)OCO2`: in series [1], the “Phytotoxicity, Bean” value worked out at 1. In addition, the “Phytotoxicity, Corn” value in series [2] is on record as 1. For the same compound, the “Phytotoxicity, Cotton” value in series [3] is on record as 1. For the same compound, the “Phytotoxicity, Tomato” value in series [4] is recorded as 1. In series [5], the “Miticidal activity rating, Mite” value is “C”.
As for `CN(SSN(C)C(=O)Oc1ccccc1C1SCCS1)C(=O)Oc1ccc(C(C)(C)C)cc1`, in series [1], the “Phytotoxicity, Bean” value is recorded as 1. In series [2], the “Phytotoxicity, Corn” value was 1. In series [3], the “Phytotoxicity, Cotton” value amounted to 1. Also, the “Phytotoxicity, Tomato” value in series [4] is reported as 1. Moreover, in series [5], the “Miticidal activity rating, Mite” value was “C”.

These data come from US4166864A, “Pesticidal unsymmetrical bis-arylcarbamate disulfide compounds” (Union Carbide Corporation, priority 1977, dated 1979).
